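Method: 48-hour compound exposure of cells in 96-well plates, five concentrations, linear interpolation of endpoints. At the GI50, growth is halved. At the TGI there is no net growth.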

TGI and GI50 data for 26 compounds are collected here from PubChem BioAssay (NCI).

For one experiment, the system named is CAKI-1 renal. The experiment is described as follows: DTP human tumour cell line panel, 48 h.
Take `CC1(C)OC[C@@H](C[C@H](O)COCc2ccccc2)O1`: the TGI was > 100 µM.

Consider `NC(N)=NS(=O)(=O)c1ccc(NC(=O)c2cccc3c(NNc4ccc(S(N)(=O)=O)cc4)c4ccccc4nc23)cc1`, for which the TGI is > 100 µM.

Regarding `Nc1nncc2[nH]cnc12`, the TGI was > 100 µM.

Consider `O=[N+]([O-])/C(Cl)=C(/C(Cl)=C(Cl)Cl)N1CCCCC1`, for which the TGI amounted to 24.9 µM.

Regarding `Nc1c(S(N)(=O)=O)cc(S(N)(=O)=O)cc1S(N)(=O)=O`, the total growth inhibition concentration (TGI) is > 100 µM.

The compound `CCCCCCc1cc2cc(-c3csc(-c4ccc(OC)cc4)n3)c(=O)oc2cc1O` came in with a TGI of 20 µM.

In the case of `COc1ccc(C2=C(Cl)C(=O)O/C2=C\c2ccc(OC)c(Br)c2)cc1Cl`, the TGI is > 100 µM.

`CNC(=S)NNc1ncnc2c1c(-c1ccc(Cl)cc1)cn2-c1ccc(C)cc1`: the TGI amounted to 23.2 µM.

For the compound `Clc1cc(C(c2cc(Cl)sc2Cl)c2cc(Cl)sc2Cl)c(Cl)s1`, the TGI is > 100 µM.

Take `COc1cc(OC)cc(Oc2nc3cc(F)c(F)cc3nc2-c2ccccc2)c1`: the TGI is > 100 µM.

Consider `C[N+]1(CCN=C=NC2CCCCC2)CCOCC1`, for which the TGI is > 100 µM.

`Cc1cc(S(=O)(=O)Nc2n[nH]c(Nc3ccccc3)n2)c(SCC(=O)O)cc1Cl`: the TGI was > 100 µM.

The compound `COc1cc2c3c(cc(Cl)nc3c1OC)C(=O)C(=O)N2` had a TGI of 28.6 µM.

As for `CCCCCCCCCCCCOCCOCCOCCOCCOCCOCC(=O)NC(Cc1ccccc1)C(=O)Oc1ccc([N+](=O)[O-])cc1` (configuration not stated), the TGI was > 100 µM.

The next experiment has as its system HS 578T breast. The experiment in a line: DTP human tumour cell line panel, 48 h.
Regarding `Cc1ccc2c(c1C)CC1(Cc3c(C)ccc(C)c3C1=O)C2=O` (configuration not stated), the TGI was > 100 µM.

For the compound `O=CN1CCN(C(=O)c2ccco2)C1=S`, the TGI is > 100 µM.

On to `O=C1/C(=C/c2ccc(Cl)cc2)CCCc2ccc(F)cc21`, for which the GI50 is 29.2 µM and the total growth inhibition concentration (TGI) was 62 µM.

On to `CC(=O)C1(O)CCC2(O)C3(O)CC=C4CC(O)CCC4(C)C3CC(OC(=O)c3ccc(O)cc3)C12C` (configuration not stated), for which the TGI is > 100 µM.

`O=C1/C(=C/c2ccncc2)C(n2cccc2)c2c(Br)sc(Br)c21` (configuration not stated) displayed a TGI of 18.1 µM.

As to `COCC#C[C@@]1(O)CCCCC1CC(OC)OC` (some centres not stated), the TGI is > 100 µM.

Compound `C=C1CC(COc2ccc3c(C)c(C)c(=O)oc3c2C)(c2ccccc2)OC1=O` (configuration not stated) gave a TGI of 13 µM.

In the case of `CC(=O)OCC(=O)O[C@@H]1[C@H]2[C@@H](OC(=O)c3ccccc3)[C@@H](C)C[C@]2(O)[C@H](OC(C)=O)[C@@]2(C)C[C@]1(OC(C)=O)C[C@H]1C(=O)C(C)(C)[C@@H](OC(C)=O)[C@@H]12`, the TGI is > 25 µM.

For `O=C(Sc1c(-c2ccccc2)c(=O)n(-c2ccccc2)c(=S)n1-c1ccccc1)c1ccco1`, the TGI is > 100 µM.

Take `Cn1nc2c(c1N)Cc1c(nn(C)c1N)-c1ccccc1-2`: the TGI is > 100 µM.

On to `Cc1nnc2n1-c1ccccc1N(Cc1ccccc1)CC2`, for which the TGI was > 100 µM.

As to `O=C(/C=C\Nc1ccccc1O)C(F)(F)F`, the TGI was > 100 µM.

For `CC1(C)OC[C@@H](C[C@H](O)COCc2ccccc2)O1`, the TGI is > 100 µM.

Regarding `NC(N)=NS(=O)(=O)c1ccc(NC(=O)c2cccc3c(NNc4ccc(S(N)(=O)=O)cc4)c4ccccc4nc23)cc1`, the TGI was > 100 µM.

Take `Nc1nncc2[nH]cnc12`: the TGI was > 100 µM.

Consider `O=[N+]([O-])/C(Cl)=C(/C(Cl)=C(Cl)Cl)N1CCCCC1`, for which the TGI was 64.4 µM.

On to `Nc1c(S(N)(=O)=O)cc(S(N)(=O)=O)cc1S(N)(=O)=O`, for which the TGI was > 100 µM.

For the compound `CCCCCCc1cc2cc(-c3csc(-c4ccc(OC)cc4)n3)c(=O)oc2cc1O`, the concentration for total growth inhibition (TGI) was 60.7 µM.

In the case of `COc1ccc(C2=C(Cl)C(=O)O/C2=C\c2ccc(OC)c(Br)c2)cc1Cl`, the TGI is > 100 µM.

Take `CNC(=S)NNc1ncnc2c1c(-c1ccc(Cl)cc1)cn2-c1ccc(C)cc1`: the TGI turned out to be 57.8 µM.

With `Clc1cc(C(c2cc(Cl)sc2Cl)c2cc(Cl)sc2Cl)c(Cl)s1`, the TGI is > 100 µM.

As to `COc1cc(OC)cc(Oc2nc3cc(F)c(F)cc3nc2-c2ccccc2)c1`, the TGI was > 100 µM.

For the compound `C[N+]1(CCN=C=NC2CCCCC2)CCOCC1`, the TGI was > 100 µM.

Take `Cc1cc(S(=O)(=O)Nc2n[nH]c(Nc3ccccc3)n2)c(SCC(=O)O)cc1Cl`: the TGI is > 100 µM.

As to `COc1cc2c3c(cc(Cl)nc3c1OC)C(=O)C(=O)N2`, the TGI is > 100 µM.

As for `CCCCCCCCCCCCOCCOCCOCCOCCOCCOCC(=O)NC(Cc1ccccc1)C(=O)Oc1ccc([N+](=O)[O-])cc1` (configuration not stated), the TGI was > 100 µM.

The next experiment deals with SK-MEL-28 melanoma. The experiment is described as follows: DTP human tumour cell line panel, 48 h.
In the case of `Cc1ccc2c(c1C)CC1(Cc3c(C)ccc(C)c3C1=O)C2=O` (configuration not stated), the TGI is > 100 µM.

Regarding `O=CN1CCN(C(=O)c2ccco2)C1=S`, the TGI was > 57.6 µM.

For the compound `O=C1/C(=C/c2ccc(Cl)cc2)CCCc2ccc(F)cc21`, the GI50 was 14.7 µM and the total growth inhibition concentration (TGI) worked out at 40.9 µM.

Consider `CC(=O)C1(O)CCC2(O)C3(O)CC=C4CC(O)CCC4(C)C3CC(OC(=O)c3ccc(O)cc3)C12C` (configuration not stated), for which the TGI was > 100 µM.

In turn, `O=C1/C(=C/c2ccncc2)C(n2cccc2)c2c(Br)sc(Br)c21` (configuration not stated) came in with a TGI of 8.73 µM.

For `COCC#C[C@@]1(O)CCCCC1CC(OC)OC` (some centres not stated), the TGI is > 100 µM.

With `C=C1CC(COc2ccc3c(C)c(C)c(=O)oc3c2C)(c2ccccc2)OC1=O` (configuration not stated), the TGI is 5.44 µM.

Take `CC(=O)OCC(=O)O[C@@H]1[C@H]2[C@@H](OC(=O)c3ccccc3)[C@@H](C)C[C@]2(O)[C@H](OC(C)=O)[C@@]2(C)C[C@]1(OC(C)=O)C[C@H]1C(=O)C(C)(C)[C@@H](OC(C)=O)[C@@H]12`: the TGI is > 25 µM.

On to `O=C(Sc1c(-c2ccccc2)c(=O)n(-c2ccccc2)c(=S)n1-c1ccccc1)c1ccco1`, for which the TGI was > 100 µM.

Take `Cn1nc2c(c1N)Cc1c(nn(C)c1N)-c1ccccc1-2`: the TGI was > 100 µM.

For the compound `Cc1nnc2n1-c1ccccc1N(Cc1ccccc1)CC2`, the TGI was > 100 µM.

Turning to `O=C(/C=C\Nc1ccccc1O)C(F)(F)F`, the TGI was > 100 µM.

For the compound `CC1(C)OC[C@@H](C[C@H](O)COCc2ccccc2)O1`, the TGI was > 100 µM.

As to `NC(N)=NS(=O)(=O)c1ccc(NC(=O)c2cccc3c(NNc4ccc(S(N)(=O)=O)cc4)c4ccccc4nc23)cc1`, the TGI was > 100 µM.

For the compound `Nc1nncc2[nH]cnc12`, the TGI is > 100 µM.

`O=[N+]([O-])/C(Cl)=C(/C(Cl)=C(Cl)Cl)N1CCCCC1`: the TGI came out at 30.3 µM.

Regarding `Nc1c(S(N)(=O)=O)cc(S(N)(=O)=O)cc1S(N)(=O)=O`, the TGI was > 100 µM.

Take `CCCCCCc1cc2cc(-c3csc(-c4ccc(OC)cc4)n3)c(=O)oc2cc1O`: the TGI was found to be 24.6 µM.

In the case of `COc1ccc(C2=C(Cl)C(=O)O/C2=C\c2ccc(OC)c(Br)c2)cc1Cl`, the TGI is > 100 µM.

Consider `CNC(=S)NNc1ncnc2c1c(-c1ccc(Cl)cc1)cn2-c1ccc(C)cc1`, for which the TGI worked out at 25.2 µM.

As for `Clc1cc(C(c2cc(Cl)sc2Cl)c2cc(Cl)sc2Cl)c(Cl)s1`, the TGI is > 100 µM.

For `COc1cc(OC)cc(Oc2nc3cc(F)c(F)cc3nc2-c2ccccc2)c1`, the TGI is > 100 µM.

As to `C[N+]1(CCN=C=NC2CCCCC2)CCOCC1`, the TGI is > 100 µM.

With `Cc1cc(S(=O)(=O)Nc2n[nH]c(Nc3ccccc3)n2)c(SCC(=O)O)cc1Cl`, the TGI was > 100 µM.

In the case of `COc1cc2c3c(cc(Cl)nc3c1OC)C(=O)C(=O)N2`, the TGI came out at 33.7 µM.
